Test results taken from BigSolDB 2.1.

CCOC(=O)Cc1c(C(=O)OCC)sc(N)c1C#N
solubility (mole fraction)
Settings | 273.15 K | 278.15 K | 283.15 K | 288.15 K | 293.15 K | 298.15 K | 303.15 K | 308.15 K | 313.15 K | 318.15 K
in acetone | 0.0446 | 0.0499 | 0.0558 | 0.0628 | 0.071 | 0.0801 | 0.0902 | 0.101 | 0.113 | 0.126
in acetonitrile | 0.0082 | 0.0102 | 0.0125 | 0.0151 | 0.0185 | 0.0225 | 0.0268 | 0.0323 | 0.0385 | 0.0455
in ethanol | 0.0031 | 0.00399 | 0.00505 | 0.00637 | 0.00798 | 0.00998 | 0.0123 | 0.015 | 0.0186 | 0.0227
in ethyl acetate | 0.0237 | 0.0257 | 0.0286 | 0.0318 | 0.0349 | 0.0386 | 0.0427 | 0.0473 | 0.0519 | 0.0567
in isopropanol | 0.00232 | 0.00307 | 0.00396 | 0.00513 | 0.00656 | 0.00845 | 0.0107 | 0.0134 | 0.0168 | 0.0213
in methanol | 0.00483 | 0.00609 | 0.00759 | 0.00947 | 0.0118 | 0.0144 | 0.0176 | 0.0214 | 0.0261 | 0.0313
in n-butanol | 0.00204 | 0.00266 | 0.00343 | 0.00438 | 0.00559 | 0.0071 | 0.0091 | 0.0114 | 0.0144 | 0.0177
in n-propanol | 0.00217 | 0.00286 | 0.0036 | 0.00471 | 0.00618 | 0.00763 | 0.00961 | 0.012 | 0.0151 | 0.0188
in toluene | 0.000402 | 0.00052 | 0.000664 | 0.000858 | 0.00109 | 0.00139 | 0.00171 | 0.00215 | 0.00265 | 0.00323
